The source of these data is PubChem BioAssay AID328 (DTP/NCI, 2004).

SMILES strings stand for the structures. Where “and” joins values, the source holds several entries; their conditions need not be identical. Identical values can stand only once. Toxic doses and inconclusive results are not listed.

The assay deals with BDF1 mice, P388 leukemia ip, median survival T/C. The assay is described as follows: NCI In Vivo Anticancer Drug Screen. Data for tumor model P388 Leukemia (intraperitoneal) in B6D2F1 (BDF1) mice. The settings on record: endpoint: median survival time, higher = longer survival. A digest of the protocol:
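T/C = treated-group survival ÷ vehicle-control survival; tumour transplanted into mice before dosing.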

Where [1] appears, read: dose: 100.0 mg/kg/injection, schedule: Q04DX003 (ip), vehicle: saline with Tween-80.
[2] abbreviates: dose: 200.0 mg/kg/injection, schedule: Q04DX003 (ip), vehicle: saline with Tween-80.
Where [3] appears, read: dose: 100.0 mg/kg/injection, schedule: Q01DX009 (ip), vehicle: other.
[4] abbreviates: dose: 100.0 mg/kg/injection, schedule: Q04DX003 (ip), vehicle: Klucel (hydroxypropylcellulose) (HPC).
Setting [5] is: dose: 200.0 mg/kg/injection, schedule: Q01DX009 (ip), vehicle: other.
[6] abbreviates: dose: 200.0 mg/kg/injection, schedule: Q04DX003 (ip), vehicle: Klucel (hydroxypropylcellulose) (HPC).
The mark [7] stands for this setting: dose: 400.0 mg/kg/injection, schedule: Q01DX009 (ip), vehicle: other.
Where [8] appears, read: dose: 400.0 mg/kg/injection, schedule: Q04DX003 (ip), vehicle: Klucel (hydroxypropylcellulose) (HPC).
Setting [9] is: dose: 25.0 mg/kg/injection, schedule: Q01DX009 (ip), vehicle: saline.
Where [10] appears, read: dose: 25.0 mg/kg/injection, schedule: Q01DX009 (ip), vehicle: Klucel (hydroxypropylcellulose) (HPC).
[11] abbreviates: dose: 50.0 mg/kg/injection, schedule: Q01DX009 (ip), vehicle: Klucel (hydroxypropylcellulose) (HPC).
Where [12] appears, read: dose: 50.0 mg/kg/injection, schedule: Q01DX009 (ip), vehicle: saline.
Where [13] appears, read: dose: 100.0 mg/kg/injection, schedule: Q01DX009 (ip), vehicle: Klucel (hydroxypropylcellulose) (HPC).
Setting [14] is: dose: 100.0 mg/kg/injection, schedule: Q01DX009 (ip), vehicle: saline.
Setting [15] is: dose: 200.0 mg/kg/injection, schedule: Q01DX009 (ip), vehicle: saline.
Setting [16] is: dose: 400.0 mg/kg/injection, schedule: Q04DX003 (ip), vehicle: saline with Tween-80.
Where [17] appears, read: dose: 50.0 mg/kg/injection, schedule: Q01DX009 (ip), vehicle: saline with Tween-80.
The mark [18] stands for this setting: dose: 100.0 mg/kg/injection, schedule: Q01DX009 (ip), vehicle: saline with Tween-80.
The mark [19] stands for this setting: dose: 200.0 mg/kg/injection, schedule: Q01DX009 (ip), vehicle: saline with Tween-80.

Consider `CCC1CC2CN(CCc3c([nH]c4ccccc34)C(C(=O)OC)(c3cc4c(cc3OC)N(C)C3C(O)(C(=O)OC)C(OC(C)=O)C5(CC)C=CCN6CCC43C65)C2)C1` (configuration not stated), for which the T/C reads like this: (dose: 0.06 mg/kg/injection, schedule: Q01DX009 (ip), vehicle: water) 90 % of control; (dose: 0.12 mg/kg/injection, schedule: Q01DX009 (ip), vehicle: water) 90 % of control and 100 % of control; (dose: 0.25 mg/kg/injection, schedule: Q01DX009 (ip), vehicle: water) 95 % of control and 100 % of control; (dose: 0.5 mg/kg/injection, schedule: Q01DX009 (ip), vehicle: water) 90 % of control and 100 % of control; (dose: 1.0 mg/kg/injection, schedule: Q01DX009 (ip), vehicle: water) 90 % of control and 95 % of control and 100 % of control; (dose: 2.0 mg/kg/injection, schedule: Q01DX009 (ip), vehicle: water) 90 % of control and 95 % of control. The T/C runs as follows: (dose: 4.0 mg/kg/injection, schedule: Q01DX009 (ip), vehicle: water) 100 % of control; (dose: 8.0 mg/kg/injection, schedule: Q01DX009 (ip), vehicle: water) 100 % of control and 90 % of control.
As to `COP(=O)(O)C(Cc1ccccc1)NC(=O)OCc1ccccc1` (configuration not stated), the T/C is, setting by setting: (dose: 25.0 mg/kg/injection, schedule: Q01DX005 (ip), vehicle: distilled water + Tween-80) 100 % of control; (dose: 50.0 mg/kg/injection, schedule: Q01DX005 (ip), vehicle: distilled water + Tween-80) 100 % of control; (dose: 100.0 mg/kg/injection, schedule: Q01DX005 (ip), vehicle: distilled water + Tween-80) 94 % of control.
Consider `Cn1c(CC(O)(C(F)(F)Cl)C(F)(F)Cl)cc(=O)n1-c1ccccc1`, for which the T/C is, setting by setting: under setting [1], 100 % of control; under setting [2], 100 % of control.
For `c1ccc(C([CH2][Hg][CH2]C(c2ccccc2)c2ccccc2)c2ccccc2)cc1`, the T/C is, setting by setting: under setting [3], 100 % of control; under setting [4], 100 % of control; under setting [5], 104 % of control; under setting [6], 116 % of control; under setting [7], 114 % of control; under setting [8], 100 % of control.
Consider `CN=C(N)c1ccc(N=C(N)c2ccc(N=C(N)c3ccc(N)cc3)cc2)cc1`, for which the T/C was 227 % of control (dose: 16.0 mg/kg/injection, schedule: Q01DX009 (ip), vehicle: saline); 245 % of control under setting [9]; 195 % of control (dose: 35.0 mg/kg/injection, schedule: Q01DX009 (ip), vehicle: saline).
As to `CCCCCCC(=O)NC1=C(N2CC2)C(=O)C(NC(=O)CCCCCC)=C(N2CC2)C1=O`, the T/C is, setting by setting: under setting [10], 182 % of control; under setting [9], 234 % of control; under setting [11], 208 % of control; under setting [12], 241 % of control; (dose: 66.0 mg/kg/injection, schedule: Q04DX003 (ip), vehicle: saline with Tween-80) 166 % of control; under setting [13], 154 % of control. The T/C was 328 % of control under setting [14]; 191 % of control and 200 % of control under setting [1]; 200 % of control (dose: 150.0 mg/kg/injection, schedule: Q04DX003 (ip), vehicle: saline with Tween-80); 107 % of control under setting [15]; 154 % of control under setting [2]; 95 % of control under setting [16].
Consider `CCC[CH2][Sn]1([CH2]CCC)[O]C(=O)C[S]1`, for which the T/C by setting is: (dose: 0.78 mg/kg/injection, schedule: Q04DX003 (ip), vehicle: saline with Tween-80) 100 % of control; (dose: 1.56 mg/kg/injection, schedule: Q04DX003 (ip), vehicle: saline with Tween-80) 113 % of control; (dose: 2.0 mg/kg/injection, schedule: Q04DX003 (ip), vehicle: saline with Tween-80) 112 % of control; (dose: 3.0 mg/kg/injection, schedule: Q04DX003 (ip), vehicle: saline with Tween-80) 116 % of control.
On to `CCCCCCCCCCC(=O)CCCCC`, for which the T/C was 90 % of control under setting [3], 100 % of control under setting [5] and 110 % of control under setting [7].
As to `C/C(=C1/c2ccccc2-c2n[nH]c(C)c21)S(=O)(=O)O`, the T/C reads like this: under setting [1], 104 % of control; under setting [2], 100 % of control; under setting [16], 100 % of control.
In the case of `CCc1ccc2[nH]nc(CCC(=O)O)c(=O)c2c1`, the T/C is 117 % of control under setting [17], 108 % of control under setting [18] and 92 % of control under setting [19].
For the molecule `CCOC(=O)C1CN(c2ccccc2)C(=O)C1=O` (configuration not stated), the T/C reads like this: under setting [11], 112 % of control; under setting [13], 118 % of control; (dose: 200.0 mg/kg/injection, schedule: Q01DX009 (ip), vehicle: Klucel (hydroxypropylcellulose) (HPC)) 110 % of control; (dose: 400.0 mg/kg/injection, schedule: Q01DX009 (ip), vehicle: Klucel (hydroxypropylcellulose) (HPC)) 110 % of control.
As to `NCC1OC(OC2C(N)CC(N)C(O)C2OC2OC(CO)C(O)C2O)C(N)C(O)C1O` (configuration not stated), the T/C (dose: 12.5 mg/kg/injection, schedule: Q01DX009 (ip), vehicle: saline) is 104 % of control; the T/C under setting [9] is 111 % of control; the T/C under setting [12] is 111 % of control; the T/C under setting [14] is 110 % of control and 114 % of control and 120 % of control; the T/C (dose: 150.0 mg/kg/injection, schedule: Q01DX009 (ip), vehicle: saline) is 105 % of control; the T/C under setting [15] was 119 % of control. The T/C is, setting by setting: (dose: 225.0 mg/kg/injection, schedule: Q01DX009 (ip), vehicle: saline) 99 % of control; (dose: 400.0 mg/kg/injection, schedule: Q01DX009 (ip), vehicle: saline) 99 % of control.
For `CN(C)c1ccc(C(C[N+](=O)[O-])(c2ccc(N(C)C)cc2)c2ccc(N(C)C)cc2)cc1`, the T/C reads like this: under setting [4], 100 % of control; under setting [6], 90 % of control; under setting [8], 100 % of control.
As for `C=C(C)c1ccccc1S(=O)(=O)c1ccccc1C(C)(C)O`, the T/C by setting is: under setting [1], 105 % of control; under setting [2], 110 % of control; under setting [16], 114 % of control.
With `Nc1nc(N)c2cc(S(=O)c3ccc4ccccc4c3)ccc2n1` (configuration not stated), the T/C under setting [17] was 95 % of control, the T/C under setting [18] was 95 % of control and the T/C under setting [19] was 104 % of control.
For the molecule `CN(C)CCNc1ccc([N+](=O)[O-])c2sc3ccccc3c(=O)c12`, the T/C (dose: 7.5 mg/kg/injection, schedule: Q01DX009 (ip), vehicle: Klucel (hydroxypropylcellulose) (HPC)) is 107 % of control; the T/C (dose: 11.0 mg/kg/injection, schedule: Q01DX009 (ip), vehicle: Klucel (hydroxypropylcellulose) (HPC)) was 115 % of control; the T/C (dose: 12.5 mg/kg/injection, schedule: Q04DX003 (ip), vehicle: Klucel (hydroxypropylcellulose) (HPC)) is 108 % of control; the T/C (dose: 17.0 mg/kg/injection, schedule: Q01DX009 (ip), vehicle: Klucel (hydroxypropylcellulose) (HPC)) was 108 % of control; the T/C under setting [10] was 157 % of control and 166 % of control; the T/C (dose: 25.0 mg/kg/injection, schedule: Q04DX003 (ip), vehicle: Klucel (hydroxypropylcellulose) (HPC)) was 116 % of control. For the same molecule, the T/C reads like this: (dose: 37.0 mg/kg/injection, schedule: Q01DX009 (ip), vehicle: Klucel (hydroxypropylcellulose) (HPC)) 92 % of control and 108 % of control; under setting [11], 91 % of control; (dose: 50.0 mg/kg/injection, schedule: Q04DX003 (ip), vehicle: Klucel (hydroxypropylcellulose) (HPC)) 162 % of control.
